Laboratory results: US8283322B2, “Formulations for nonsurgical exogenous crosslink therapy” (Orthopeutics, LP, priority 2008, dated 2012)

How the values were obtained:
[1] = test system: annulus fibrosus specimens from bovine lumbar intervertebral discs; assay: Tear resistance of annulus fibrosus (radial tear propagation); details: soaked two days in 0.15M PBS plus 0.33% genipin
From the text: Ten annulus fibrosus circumferentially aligned specimens from bovine lumbar (T12-L5) intervertebral discs were divided into two groups and either soaked two days in a 0.15M PBS or a 0.15M PBS plus 0.33% genipin solution. A custom loading fixture attached to a uniaxial materials testing system was designed to hold an annulus specimen perpendicular to the travel of a metal cylinder placed in a pre-existing radial cut. The cylinder was then pulled radially (perpendicular to lamellae) towards the external layer. Time dependent force and displacement data was acquired simultaneously. Tearing resistance was quantified in two ways: peak force normalized by specimen thickness and tearing energy per area of tear. Differences between groups were analyzed using the Mann-Whitney non-parametric test.

[2] = test system: calf intervertebral discs; assay: Hydration change / fluid flux of disc regions (soaking, creep loading, resoaking); parameters: species or system calf (4 month-old bovine); details: for % increase by Genipin, NP: flux into and out of the central nucleus region vs control flux
From the text: By measuring the change in hydration of different regions of the intervertebral disc (nucleus pulposus, inner annulus, and outer annulus fibrosus) prior to and after periods of soaking, sustained compressive loading, and resoaking, the fluid flux to and from different regions can be determined. By comparing these measurements between control discs and discs treated with crosslinking reagents known to have minimal cytotoxicity, we see the effect of crosslinking treatment on fluid flux and permeability. A total of 24 calf (4 month-old bovine) intervertebral discs were used for this study. Water content of three different areas of the […] tissue were tested-the nucleus pulposus, inner annulus fibrosus and outer annulus fibrosus. Hydration change was determined by weighing the specimen using a micro-balance (sensitivity: 0.1 mg). Water content (M) was calculated as: M=(Wet Weight-Dry Weight)/Wet Weight=g H2O/g Wet Weight The drying procedure consisted of putting the specimens in the oven with a controlled temperature of 90° C. for 24 hrs. The specimens were separated into four tests: • 1. Group A: Three specimens were in this group. It served as a control group. The specimens were soaked in PBS (phosphate buffered saline) for 1 day and then the hydration analysis was performed. • 2. Group B1: Four specimens were in this group. In addition to the one day PBS soaking, the specimens soaked in PBS for 2 more days as a control and then the hydration analysis was performed. • Group B2: Five specimens were in this group. In addition to the one day PBS soaking, the specimens were soaked in 0.33% genipin solution for 2 days and then the hydration analysis was performed. • 3. In group C, a small daytime amount of constant compressive loading (creep) was simulated. • C1: Three specimens were in this group. The specimens were soaked in PBS for 3 days and then […] of compression was applied by a materials testing machine for 1 hour. The disc was compressed in a 5 degree of flexion posture produced by two rollers attached to the loading ram of the materials testing machine. The hydration analysis was performed immediately after the creep loading. • C2: Three specimens were in this group. The specimens were soaked in 0.33% Genipin solution for 2 days after 1 day of PBS soaking and performed identical creep loading with […] compressive load. The hydration analysis was performed immediately after the creep loading. • 4. In group D, the imbibition of water following a period of compressive loading that typically occurs in the night time as a person is in a recumbent posture was simulated. • D1: The specimens were soaked in PBS solution for 3 days and then 1 hr of creep loading at […] was applied. After the creep loading, the specimens were placed in a container in 1 PBS for one more day followed by the hydration analysis. • D2: Three specimens were included and were soaked in 0.33% genipin solution for 2 days after one day of PBS soaking. A creep load of […] for 1 hr was then applied. The specimens were put in PBS for another day followed by the hydration analysis.

physchem = format: physicochemical; details: for half-life: buffer
From the text: In the case of the crosslinking agent genipin (GP), using a quantitative HPLC assay, the inventors have shown that the agent is unstable in aqueous solution. The rate of degradation can be very rapid and is dependent on pH. […] In all cases this instability is not suitable for long term storage of a genipin-containing crosslinking agent at ambient temperature. […] The inventors have also shown that GP is stable as a powder for at least 1 year. These observations have consequences for the manufacture and/or final form of a crosslinking reagent containing GP, i.e., the GP would have to be stored either in powdered form or in a suitable non-aqueous, water-miscible solvent. The solvent could be, but is not limited to, ethanol, methanol, propanol, acetonitrile or dimethyl sulfoxide.

[3] = combined fluid flow out (creep) and in (resoaking)

Genipin Flux, Inner AF [2, 3]: 0.1008
Genipin Flux, NP [2, 3]: 0.04983
Genipin Flux, Outer AF [2, 3]: 0.05294
degradation in non-aqueous solvents (physchem): no GP degradation was detected
stability as a powder (physchem): at least 1 year
half-life (physchem; pH 4): 214 h
half-life (physchem; pH 5): 219 h
half-life (physchem; pH 6): 135 h
half-life (physchem; pH 7): 60 h
half-life (physchem; pH 8): 18 h
half-life (physchem; pH 9): 2.8 h
Structure (SMILES): COC(=O)C1=CO[C@@H](O)[C@@H]2C(CO)=CC[C@H]12 [Genipin, genipin]
Total energy per area of tear ([1]; p=0.047 vs control): 40.2 mJ/mm^2
Normalized peak force ([1]; p=0.076 vs control): 42.7 N/mm
% increase by Genipin, NP [2]: 63.7%
% increase by Genipin, NP ([2]; listed as genipin): 64%
% increase by Genipin, Inner AF ([2]; flux vs control flux): 17.3%
% increase by Genipin, Outer AF ([2]; flux vs control flux): 5.7%
